Tests used:
Vero cells = assay: Cytotoxicity, Vero cells, Alamar Blue; assay type: cell-based; conditions: 25 μM, 20 hours
Procedure, shortened: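 Living-cell ratio versus untreated control was read by Alamar Blue absorbance after about 6 h of dye incubation. Before that, Vero cells had received 25 μM test compound in 2% FBS-DMEM for 20 hours at 37 °C under 5% CO2.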

HSV-1 = assay: Antiviral activity, HSV-1 in Vero cells, plaque method; assay type: cell-based; conditions: Human alphaherpesvirus 1, 20 hours, 90% inhibition of plaque formation
Procedure, shortened: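 This is a virus-yield read-out. The culture medium was frozen at −80° C and thawed, and the plaques it formed were counted. It came from Vero monolayers infected with 50,000 pfu HSV-1 and then exposed to the compound for 20 h at 37° C. EC90 is the concentration inhibiting 90% of plaque formation relative to the untreated infected control.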

HSV-1 protease = target: T1, HSV-1 protease (Human herpesvirus 1, UniProt P10210); assay: Enzymatic assay for HSV-1 protease (assembly) inhibitor, fluorescence polarization; assay type: biochemical; conditions: read-out: HSV-1 Enzyme inhibition IC50
T1 construct: 6xHis (N); made in house; host or cells: baculovirus expression system
Procedure, shortened: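 Fluorescence polarization read-out: after avidin stop, cleavage of a biotinylated DTAF-labelled release-site peptide by recombinant N-His6 HSV-1 protease was compared with no-inhibitor wells. Enzyme and compound were preincubated 30 min, then substrate reacted 60 min, all at room temperature, pH 7.4 citrate buffer with TCEP.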

T1 sequence (P10210 1-247): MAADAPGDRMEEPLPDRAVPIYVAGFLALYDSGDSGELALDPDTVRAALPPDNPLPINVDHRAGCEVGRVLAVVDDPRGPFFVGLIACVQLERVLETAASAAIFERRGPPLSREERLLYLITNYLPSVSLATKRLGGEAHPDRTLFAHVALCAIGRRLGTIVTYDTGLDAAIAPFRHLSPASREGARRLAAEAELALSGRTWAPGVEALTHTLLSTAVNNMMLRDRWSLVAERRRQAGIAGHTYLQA

Row | SMILES | EC90 (HSV-1) | IC50 (HSV-1 protease) | Cell viability (% of control) (Vero cells)
1 | Cc1c(NC(=O)OC(C)(C)C)ccc2nc(N[C@H](C(=O)N(C)CCc3ccccn3)C(C)C)oc(=O)c12 [Compound No.45, (5-Methyl-2-{2-methyl-1S-[methyl-(2-pyridin-2-yl-ethyl)-carbamoyl]-propylamino}-4-oxo-4H-benzo[d][1,3]oxazin-6-yl)-carbamic acid tert-butyl ester] | 6.6 µM | 1.7 µM | 107.0%
2 | Cc1c(NC(=O)c2ccc3c(c2)OCO3)ccc2nc(NC(C)(C)C(=O)N(C)CCc3ccccn3)oc(=O)c12 [Compound No.193, Benzo[1,3]dioxol-5-carboxylic acid (5-methyl-2-{1-methyl-1-[methyl-(2-pyridin-2-yl-ethyl)-carbamoyl]-ethylamino}-4-oxo-4H-benzo[d][1,3]oxazin-6-yl)-amide] | ≥ 12.5 µM | 3.7 µM | 67.0%
3 | COc1cc(OC)cc(C(=O)Nc2ccc3nc(NC(C)(C)C(=O)N(C)CCc4ccccn4)oc(=O)c3c2C)c1 [compound 191, 3,5-Dimethoxy-N-(5-methyl-2-{1-methyl-1-[methyl-(2-pyridin-2-yl-ethyl)-carbamoyl]-ethylamino}-4-oxo-4H-benzo[d][1,3]oxazin-6-yl)-benzamide] | > 12.5 µM | 0.6 µM | 89.1%
4 | Cc1c(NC(=O)c2cccc(C(F)(F)F)c2)ccc2nc(NC(C)(C)C(=O)N(C)CCc3ccccn3)oc(=O)c12 [Compound No.145, N-(5-Methyl-2-{1-methyl-1-[methyl-(2-pyridin-2-yl-ethyl)-carbamoyl]-ethylamino}-4-oxo-4H-benzo[d][1,3]oxazin-6-yl)-3-trifluoromethyl-benzamide] | 6 µM | 1.3 µM | 19.7%
5 | Cc1c(NC(=O)OC(C)(C)C)ccc2nc(N[C@@H](CC(C)C)C(=O)N(C)CCc3ccncc3)oc(=O)c12 [Compound No.54, (5-Methyl-2-{3-methyl-1S-[methyl-(2-pyridin-4-yl-ethyl)-carbamoyl]-butylamino}-4-oxo-4H-benzo[d][1,3]oxazin-6-yl)-carbamic acid tert-butyl ester] | 6.2 µM | 1.8 µM | 62.8%
6 | Cc1c(NC(=O)c2ccc(-c3ccccc3)cc2)ccc2nc(NC(C)(C)C(=O)N(C)CCc3ccccn3)oc(=O)c12 [Compound No.169, Biphenylyl-4-carboxylic acid (5-methyl-2-{1-methyl-1-[methyl-(2-pyridin-2-yl-ethyl)-carbamoyl]-ethylamino}-4-oxo-4H-benzo[d][1,3]oxazin-6-yl)-amide] | 5.7 µM | 1 µM | 7.0%
7 | Cc1c(NC(=O)OC(C)(C)C)ccc2nc(N[C@@H](CC(C)C)C(=O)NCc3cccnc3)oc(=O)c12 [Compound No.37, (5-Methyl-2-{3-methyl-1S-[(pyridin-3-ylmethyl)-carbamoyl]-butylamino}-4-oxo-4H-benzo[d][1,3]oxazin-6-yl)-carbamic acid tert-butyl ester] | 15 µM | 4.6 µM | 105.0%
8 | Cc1c(NC(=O)OC(C)(C)C)ccc2nc(N[C@H](C(=O)NCc3ccccn3)C(C)(C)C)oc(=O)c12 [Compound No.32, (2-{2,2-dimethyl-1S-[(pyridin-2-ylmethyl)-carbamoyl]-propylamino}-5-methyl-4-oxo-4H-benzo[d][1,3]oxazin-6-yl)-carbamic acid tert-butyl ester] | 21.5 µM | 19.6 µM | 111.0%
9 | CC(=O)OC(C(=O)Nc1ccc2nc(NC(C)(C)C(=O)N(C)CCc3ccccn3)oc(=O)c2c1C)c1ccccc1 (stereo not drawn) [Compound No.192, Acetic acid (5-methyl-2-{1-methyl-1-[methyl-(2-pyridin-2-yl-ethyl)-carbamoyl]-ethylamino}-4-oxo-4H-benzo[d][1,3]oxazin-6-ylcarbamoyl)-phenyl-methyl ester] | > 12.5 µM | 7.2 µM | 93.9%
10 | Cc1c(NC(=O)OC(C)(C)C)ccc2nc(N[C@H](C(=O)NCc3cccnc3)C(C)(C)C)oc(=O)c12 [Compound No.33, (2-{2,2-dimethyl-1S-[(pyridin-3-ylmethyl)-carbamoyl]-propylamino}-5-methyl-4-oxo-4H-benzo[d][1,3]oxazin-6-yl)-carbamic acid tert-butyl ester] | 13 µM | 10.1 µM | 105.0%
11 | Cc1c(NC(=O)c2ccc(F)cc2)ccc2nc(NC(C)(C)C(=O)N(C)CCc3ccccn3)oc(=O)c12 [Compound No.149, 4-Fluoro-N-(5-methyl-2-{1-methyl-1-[methyl-(2-pyridin-2-yl-ethyl)-carbamoyl]-ethylamino}-4-oxo-4H-benzo[d][1,3]oxazin-6-yl)-benzamide] | 10.6 µM | 1.5 µM | 65.4%
12 | Cc1cc(C(=O)Nc2ccc3nc(NC(C)(C)C(=O)N(C)CCc4ccccn4)oc(=O)c3c2C)c(C)o1 [Compound No.176, 2,5-Dimethyl-furan-3-carboxylic acid (5-methyl-2-{1-methyl-1-[methyl-(2-pyridin-2-yl-ethyl)-carbamoyl]-ethylamino}-4-oxo-4H-benzo[d][1,3]oxazin-6-yl)-amide] | > 12.5 µM | 1.9 µM | 93.3%
13 | Cc1c(NC(=O)OC(C)(C)C)ccc2nc(N3Cc4ccccc4C[C@H]3C(=O)N(C)Cc3ccccn3)oc(=O)c12 [Compound No.98, {5-Methyl-2-[3S-(methyl-pyridin-2-yl-methylcarbamoyl)-3,4-dihydro-1H-isoquinolin-2-yl]-4-oxo-4H-benzo[d][1,3]oxazin-6-yl}-carbamic acid tert-butyl ester] | 5.8 µM | 6.1 µM | 46.2%
14 | Cc1c(NC(=O)OC(C)(C)C)ccc2nc(N(C)[C@@H](Cc3ccccc3)C(=O)NCc3ccncc3)oc(=O)c12 [Compound No.80, [5-Methyl-2-(methyl-{2-phenyl-1S-[(pyridin-4-ylmethyl)-carbamoyl]-ethyl}-amino)-4-oxo-4H-benzo[d][1,3]oxazin-6-yl]-carbamic acid tert-butyl ester] | 5.9 µM | 0.9 µM | 48.0%

More lines, in order of falling IC50 (HSV-1 protease), values ahead:

Row | EC90 (HSV-1) | IC50 (HSV-1 protease) | SMILES | Cell viability (% of control) (Vero cells)
15 | 24.3 µM | 19.5 µM | Cc1c(NC(=O)OC(C)(C)C)ccc2nc(N[C@@H](CC3CCCCC3)C(=O)NCCc3ccccn3)oc(=O)c12 [Compound No.29, {2-[2-Cyclohexyl-1S-(2-pyridin-2-ylethylcarbamoyl)-ethylamino]-5-methyl-4-oxo-4H-benzo[d][1,3]oxazin-6-yl}-carbamic acid tert-butyl ester] | 110.0%
16 | 5.9 µM | 7.4 µM | Cc1c(NC(=O)OC(C)(C)C)ccc2nc(N[C@@H](CC3CCCCC3)C(=O)N(C)CCc3ccncc3)oc(=O)c12 [Compound No.55, (2-{2-Cyclohexyl-1S-[methyl-(2-pyridin-4-yl-ethyl)-carbamoyl]-ethylamino}-5-methyl-4-oxo-4H-benzo[d][1,3]oxazin-6-yl)-carbamic acid tert-butyl ester] | 43.8%
17 | > 12.5 µM | 4.9 µM | Cc1c(NC(=O)c2ccccc2OC(F)(F)F)ccc2nc(NC(C)(C)C(=O)N(C)CCc3ccccn3)oc(=O)c12 [Compound No.182, N-(5-Methyl-2-{1-methyl-1-[methyl-(2-pyridin-2-yl-ethyl)-carbamoyl]-ethylamino}-4-oxo-4H-benzo[d][1,3]oxazin-6-yl)-2-trifluoromethoxy-benzamide] | 95.2%
18 | 6.3 µM | 1.8 µM | Cc1c(NC(=O)c2cccc(Cl)c2)ccc2nc(NC(C)(C)C(=O)N(C)CCc3ccccn3)oc(=O)c12 [Compound No.152, 3-Chloro-N-(5-methyl-2-{1-methyl-1-[methyl-(2-pyridin-2-yl-ethyl)-carbamoyl]-ethylamino}-4-oxo-4H-benzo[d][1,3]oxazin-6-yl)-benzamide] | 30.9%
19 | > 12.5 µM | 1.5 µM | Cc1c(NC(=O)OC(C)(C)C)ccc2nc(N(C)[C@@H](C)C(=O)NCCc3ccccn3)oc(=O)c12 [Compound No.74, (5-Methyl-2-{methyl-[1S-(2-pyridin-2-ylethylcarbamoyl)-ethyl]-amino}-4-oxo-4H-benzo[d][1,3]oxazin-6-yl)-carbamic acid tert-butyl ester] | 95.3%
20 | 6.2 µM | 1.4 µM | CCOc1ccc(C(=O)Nc2ccc3nc(NC(C)(C)C(=O)N(C)CCc4ccccn4)oc(=O)c3c2C)cc1 [Compound No.164, 4-Ethoxy-N-(5-methyl-2-{1-methyl-1-[methyl-(2-pyridin-2-yl-ethyl)-carbamoyl]-ethylamino}-4-oxo-4H-benzo[d][1,3]oxazin-6-yl)-benzamide] | 47.7%
21 | > 12.5 µM | 1.4 µM | Cc1c(NC(=O)OC(C)(C)C)ccc2nc(N(C)[C@@H](C)C(=O)N(C)CCc3ccncc3)oc(=O)c12 [Compound No.78, [5-Methyl-2-(methyl-{1S-[methyl-(2-pyridin-4-yl-ethyl)-carbamoyl]-ethyl}-amino)-4-oxo-4H-benzo[d][1,3]oxazin-6-yl]-carbamic acid tert-butyl ester] | 90.7%

— patent US20040116420A1 (priority 2001, published 2004)
